{
  "source": "patent US4192889A",
  "about": "“Ruminant feeds containing trichloroethyl esters of essential amino acids” (E. R. Squibb & Sons, Inc., priority 1979, dated 1980)",
  "key": {"[1]": {"test_system": "volatile fatty acid concentrations in the in vitro rumen fermentation", "assay": "in vitro rumen fermentation, volatile fatty acids (high concentrate substrate, alfalfa hay:concentrate 1:3)", "set-up": "species or system sheep", "procedure": "(§1) A one gram sample of substrate ground through a 1 mm screen is weighted into 100 ml. lipless beakers equipped with gas-release valves. The substrate consists of alfalfa hay containing approximately 16% protein and a concentrate containing ground corn 60.7%, alfalfa meal 17.5%, molasses 10.0%, soybean meal 5.3%, wheat bran 5.0%, trace mineralized salt 1.0%, limestone 0.5% and Vitamin D 300,000 I.U./ton, mixed in the proportion 3:1. The experimental composition is added to the substrate. 25 ml. of filtered rumen fluid obtained from fasted sheep maintained on feed the same as the above mentioned substrate and 25 ml. of McDougal's buffer solution serve as the inoculum. The buffer solution is as follows:\n(§2) The fermentation mixture is flushed with carbon dioxide and the vessel is capped with a gas release valve. The fermentation vessel (beaker) is placed in a water bath and incubated at 39° C.±1° for six hours. The sample is mixed every hour by shaking the beaker.\n(§3) At the end of the 6-hour fermentation period the sample is strained through 4 layers of cheesecloth into a sample bottle containing 1 ml. saturated solution of mercuric chloride. The sample is frozen immediately until analyzed for the volatile fatty acids (VFA) (mg/100 ml.). Prior to analysis, each sample is acidified with 30% phosphoric acid and then analyzed by gas chromatography using a column containing 5% nonylphenoxypolyoxyethylene ethanol plus 0.5% phosphoric acid on 100-120 mesh Gas Chrom S. The acids determined are acetic, propionic, butyric, isobutyric, valeric and isovaleric acids. Total VFA is considered as the addition of these acids. The ratio of acetic:propionic (A:P) is obtained by dividing the concentration of acetic acid by that of propionic acid.\nThe procedure is described in Example 3. In this example, however, the substrate consisted of alfalfa hay and concentrate in the ratio of 1:3 and inoculum was obtained from sheep fed alfalfa and concentrate in the ratio of 1:3. The concentrate (Fit-N-Fresh)is commercially available from Agway, Inc. and contains grain products, plant protein products, processed grain by-products, cane molasses, minerals, vitamins and a preservative.\nThe 2,2,2-trichloroethyl ester of glycine was tested in vitro in a manner similar to that described in Example 4."}, "[2]": {"test_system": "volatile fatty acid concentrations in fistulated sheep", "assay": "volatile fatty acid concentrations in vivo in sheep with rumen fistulae (227 g concentrate + 680 g alfalfa hay)", "set-up": "species or system sheep (wethers)", "details": "for acetic:propionic ratio (in words) / proportion of propionic acid (in words): fistulated sheep; for Total acids (mg/100 ml.): Table 3, treatment day 7", "excerpt": "(§4) Mature sheep (wethers) fitted with permanent rumen fistulae were used to determine the effect of L-phenylalanine, 2,2,2-trichloroethyl ester on volatile fatty acid concentrations in vivo (3 wethers per treatment). The animals were individually penned and fed 227 g. of concentrate (described in Example 3) and 680 g. of alfalfa hay once daily. The test compound was admixed with the concentrate. The sheep were medicated for 7 days. Samples for analysis were obtained before (Day 0) and after treatment (Day 7) approximately 6 hours after feeding."}, "[3]": {"assay": "body weight gain and feed efficiency of growing lambs", "format": "in vivo, lambs (wether and ewe)", "procedure": "A test was conducted to determine if feeding L-phenylalanine 2,2,2-trichloroethyl ester to growing lambs was effective in improving growth and feed efficiency. Wether and ewe lambs were divided into groups of 30 lambs each. They were acclimated to their pens for 2 weeks prior to treatment.\nThe feed supplied to the animals had the following composition\nThe test compound in an amount of 0.0055% (50 g/ton) was admixed with the above feed composition.\nBody weights and feed consumption were recorded at 0, 2, 4 and 6 weeks. Feed efficiencies were calculated.\nThe test procedure of Example 9 was followed to test the growth effect and feed efficiency of glycine 2,2,2-trichloroethyl ester on growing lambs. The feed composition of Example 9 was used but contained glycine 2,2,2-trichloroethyl ester in an amount of 0.0044% (40 g/ton). There were 44 lambs in the control group receiving the feed composition without additive and 42 lambs receiving the feed composition containing the amino acid ester.\nThe test procedure of Example 9 was followed to test the growth effect and feed efficiency of L-phenylalanine 2,2,2-trichloroethyl ester on growing lambs. The feed composition of Example 9 was used but contained 0.0088% (80 g/ton) of this amino acid ester. There were 59 lambs in the control group fed the feed without additive and 58 lambs in the group fed the feed composition containing the test compound."}, "[4]": {"test_system": "volatile fatty acid concentrations in the in vitro rumen fermentation", "assay": "in vitro rumen fermentation, volatile fatty acids (alfalfa hay:concentrate 3:1)", "set-up": "species or system sheep", "details": "for Acetic / Acetic Propionic (ratio) / Propionic / Total Acids / butyric: Table 10, 0.2 mg/ml", "excerpt": "Based on the knowledge of the foregoing, a practical method of testing growth promoters in vitro has been the simulation of conditions in the rumen with fermentation reactions. Such a method comprises adding the test substance to a substrate such as ground hay, corn or mixtures of feed materials. Rumen fluid from a fasted ruminant (bovine, ovine, or caprine) is mixed with a buffer solution and added to a fermentation flask containing the test additive and the substrate. The flask is purged of oxygen, stoppered with a pressure release valve, and incubated at 39°±1° C. for periods up to 48 hours. The change in volatile fatty acid concentration is determined by chemical analysis of the rumen fluid before and after fermentation. As a control, the above experiment is run without a test additive.\nas §1, §2, §3\nThe effect of various compounds alone on the volatile fatty acid concentrations was determined by the procedure of Example 3. […] A direct comparison between phenylalanine and phenylalanine trichloroethyl ester is provided."}, "[5]": {"test_system": "volatile fatty acid concentrations in the rumen of fistulated wethers", "assay": "volatile fatty acid concentrations in the rumen of fistulated wethers (454 g concentrate + 454 g chopped mixed hay)", "format": "in vivo, sheep (wethers)", "details": "for Total acids (mg/100 ml): Table 4, treatment day 7", "excerpt": "as §4\nAn experiment similar to that described in Example 5 was performed except that the animals (3 per treatment) were fed 454 g. of concentrate (described in Example 3) and 454 g. of chopped mixed (grasses) hay."}, "[6]": {"details": "fistulated wethers, concentrate/mixed hay diet"}},
  "data": [
    {"smiles": "NCC(=O)OCC(Cl)(Cl)Cl", "note": "[2,2,2-trichloroethyl ester of glycine, aminoacetic acid 2,2,2-trichloroethyl ester]", "values": [
      {"measurement": "acetic:propionic ratio (in words)", "setting": "[1]", "value": "decreasing the acetic:propionic ratio"},
      {"measurement": "propionic acid concentration (in words)", "setting": "[1]", "value": "effective in increasing propionic acid concentration"},
      {"measurement": "Total acid (mg/100 ml)", "setting": "[2]; Table 6, 500 mg/head/day, treatment", "value": 731, "unit": "mg/100 ml"},
      {"measurement": "acetic:propionic ratio (in words)", "setting": "[2]", "value": "decreasing the acetic:propionic ratio"},
      {"measurement": "proportion of propionic acid (in words)", "setting": "[2]", "value": "effective in increasing the proportion of propionic acid"},
      {"measurement": "Weight gain", "setting": "[3]; Table 8, 0.0044% (40 g/ton) in feed, 0-2 wks, control 2.32", "value": 2.31, "unit": "kg"},
      {"measurement": "Weight gain", "setting": "[3]; Table 8, 0.0044% (40 g/ton) in feed, 0-4 wks, control 5.09", "value": 5.13, "unit": "kg"},
      {"measurement": "Feed efficiency gain/feed", "setting": "[3]; Table 8, 0.0044% (40 g/ton) in feed, 0-6 wks, control 0.148", "value": 0.154, "unit": "gain/feed"},
      {"measurement": "Weight gain", "setting": "[3]; Table 8, 0.0044% (40 g/ton) in feed, 0-6 wks, control 7.18", "value": 7.37, "unit": "kg"}
    ]},
    {"smiles": "N[C@@H](Cc1ccccc1)C(=O)O", "note": "[L-phenylalanine]", "values": [
      {"measurement": "Acetic", "setting": "[4]", "value": "95 % of Control"},
      {"measurement": "Acetic Propionic (ratio)", "setting": "[4]", "value": "100 % of Control"},
      {"measurement": "Propionic", "setting": "[4]", "value": "94 % of Control"},
      {"measurement": "Total Acids", "setting": "[4]", "value": "96 % of Control"},
      {"measurement": "butyric", "setting": "[4]", "value": "97 % of Control"}
    ]},
    {"smiles": "N[C@@H](Cc1ccc(Cl)cc1)C(=O)O", "note": "(racemic) [p-chlorophenylalanine]", "values": [
      {"measurement": "Acetic", "setting": "[4]", "value": "91 % of Control"},
      {"measurement": "Acetic Propionic (ratio)", "setting": "[4]", "value": "101 % of Control"},
      {"measurement": "Propionic", "setting": "[4]", "value": "91 % of Control"},
      {"measurement": "Total Acids", "setting": "[4]", "value": "91 % of Control"},
      {"measurement": "butyric", "setting": "[4]", "value": "92 % of Control"}
    ]},
    {"smiles": "N[C@@H](Cc1ccccc1)C(=O)OCC(Cl)(Cl)Cl", "note": "[L-Phenylalanine 2,2,2-trichloroethyl ester]", "values": [
      {"measurement": "acetic to propionic acid ratio (in words)", "setting": "[4]; at all levels", "value": "decreasing the acetic to propionic acid ratio"},
      {"measurement": "propionic acid concentrations (in words)", "setting": "[4]; at all levels", "value": "effective in increasing the propionic acid concentrations"},
      {"measurement": "acetic:propionic ratio (in words)", "setting": "[1]", "value": "decreasing the acetic:propionic ratio"},
      {"measurement": "propionic acid concentration (in words)", "setting": "[1]", "value": "effective in increasing the propionic acid concentration"},
      {"measurement": "Total acids (mg/100 ml.)", "setting": "[2]; 200 mg/head/day", "value": 667, "unit": "mg/100 ml."},
      {"measurement": "Total acids (mg/100 ml.)", "setting": "[2]; 500 mg/head/day", "value": 624, "unit": "mg/100 ml."},
      {"measurement": "acetic:propionic ratio (in words)", "setting": "[2]", "value": "decreased the acetic:propionic ratio"},
      {"measurement": "proportion of propionic acid (in words)", "setting": "[2]", "value": "increased the proportion of propionic acid"},
      {"measurement": "Total acids (mg/100 ml)", "setting": "[5]; 200 mg/head/day", "value": 663, "unit": "mg/100 ml"},
      {"measurement": "Total acids (mg/100 ml)", "setting": "[5]; 500 mg/head/day", "value": 734, "unit": "mg/100 ml"},
      {"measurement": "acetic:propionic ratio (in words)", "setting": "[5]; [6]", "value": "decreasing the acetic:propionic ratio"},
      {"measurement": "proportion of propionic acid (in words)", "setting": "[5]; [6]", "value": "effective in increasing the proportion of propionic acid"},
      {"measurement": "feed efficiency of growing lambs (in words)", "setting": "[3]; 0.0055% (50 g/ton) in the feed", "value": "improving feed efficiency"},
      {"measurement": "gains of growing lambs (in words)", "setting": "[3]; 0.0055% (50 g/ton) in the feed", "value": "effective in increasing gains"},
      {"measurement": "Body weight gain", "setting": "[3]; Table 7, 0.0055% (50 g/ton) in feed, 0-2 wks., control 2.47", "value": 2.97, "unit": "kg"},
      {"measurement": "Body weight gain", "setting": "[3]; Table 7, 0.0055% (50 g/ton) in feed, 0-4 wks., control 5.80", "value": 5.82, "unit": "kg"},
      {"measurement": "Body weight gain", "setting": "[3]; Table 7, 0.0055% (50 g/ton) in feed, 0-6 wk., control 8.51", "value": 9.08, "unit": "kg"},
      {"measurement": "Feed efficiency (gain/unit of feed)", "setting": "[3]; Table 7, 0.0055% (50 g/ton) in feed, 0-6 wks., control 0.190", "value": "0.196 gain/unit of feed"},
      {"measurement": "Weight gain", "setting": "[3]; Table 9, 0.0088% (80 g/ton) in feed, 0-2 wks, control 1.50", "value": 1.49, "unit": "kg"},
      {"measurement": "Weight gain", "setting": "[3]; Table 9, 0.0088% (80 g/ton) in feed, 0-4 wks, control 4.44", "value": 4.63, "unit": "kg"},
      {"measurement": "Feed efficiency gain/feed", "setting": "[3]; Table 9, 0.0088% (80 g/ton) in feed, 0-6 wks, control 0.160", "value": 0.168, "unit": "gain/feed"},
      {"measurement": "Weight gain", "setting": "[3]; Table 9, 0.0088% (80 g/ton) in feed, 0-6 wks, control 7.56", "value": 7.81, "unit": "kg"}
    ]},
    {"smiles": "O=CC(Cl)(Cl)Cl", "note": "[chloral]", "values": [
      {"measurement": "Acetic", "setting": "[4]", "value": "88 % of Control"},
      {"measurement": "Acetic Propionic (ratio)", "setting": "[4]", "value": "80 % of Control"},
      {"measurement": "Propionic", "setting": "[4]", "value": "110 % of Control"},
      {"measurement": "Total Acids", "setting": "[4]", "value": "96 % of Control"},
      {"measurement": "butyric", "setting": "[4]", "value": "110 % of Control"}
    ]}
  ]
}
